These results are taken from ChEMBL document CHEMBL1154954, “Synthesis and in vitro evaluation of (18)F-labelled S-fluoroalkyl diarylguanidines: Novel high-affinity NMDA receptor antagonists for imaging with PET” (Bioorg Med Chem Lett, 2010).

The source made the active and inactive calls. The calls are words filed in the database; no cut-off is given here.

Series [1] has as its target Glutamate NMDA receptor. Nature of the series: Displacement of [3H]TCP from NMDA receptor PCP binding site in rat cerebral cortex homogenate. Format: tissue-based.
Series [2] in a line: Binding affinity to NMDA receptor PCP binding site.
A short description of series [3]: Lipophilicity, log D of the compound. The format is physicochemical. The conditions noted are these: octanol/water.
A short description of series [4]: Distribution coefficient, log D at pH 7.5. Format: physicochemical. To be noted: octanol/water.
For series [5], the target named is Voltage-gated inwardly rectifying potassium channel KCNH2 (Homo sapiens, UniProt Q12809). Nature of the series: Inhibition of human ERG at 10 nM. To be noted: 0.01 µM.
Series [6] is described as follows: Octanol-phosphate buffer partition coefficient, log D at pH 7.4. The format is physicochemical.
In series [7] the target is hERG (KCNH2) (Homo sapiens, UniProt Q12809). Nature of the series: Inhibition of human ERG at 1 uM.
Series [8] in a line: Inhibition of voltage gated sodium channel site 2 at 1 uM. To be noted: tested as the 18F-labelled form.
In series [9] the target is Sigma non-opioid intracellular receptor 1 (Homo sapiens) (UniProt Q99720). Nature of the series: Inhibition of sigma 1 receptor at 1 uM. To be noted: tested as the 18F-labelled form.
Series [10] in a line: Inhibition of sigma 2 receptor at 1 uM. To be noted: tested as the 18F-labelled form.
The target of series [11] is Sodium-dependent noradrenaline transporter (Homo sapiens) (UniProt P23975). Nature of the series: Inhibition of norepinephrine transporter at 1 uM. The conditions noted are these: tested as the 18F-labelled form.
Series [12] is described as follows: Inhibition of GABA A receptor at 1 uM. The conditions noted are these: tested as the 18F-labelled form.
Series [13] addresses 5-hydroxytryptamine receptor 5A (Homo sapiens) (UniProt P47898). Nature of the series: Inhibition of 5HT5A receptor at 1 uM. To be noted: tested as the 18F-labelled form.
Series [14] is described as follows: Inhibition of opioid receptor at 1 uM. To be noted: tested as the 18F-labelled form.
Series [15] is described as follows: Inhibition of voltage gated sodium channel site 2 at 10 nM. To be noted: tested as the 18F-labelled form.
The target in series [16] is Sigma non-opioid intracellular receptor 1 (Homo sapiens) (UniProt Q99720). The series can be described thus: Inhibition of sigma 1 receptor at 10 nM. The conditions noted are these: tested as the 18F-labelled form.
The nature of series [17]: Inhibition of sigma 2 receptor at 10 nM. The conditions noted are these: tested as the 18F-labelled form.
For series [18], the target named is Sodium-dependent noradrenaline transporter (Homo sapiens) (UniProt P23975). Nature of the series: Inhibition of norepinephrine transporter at 10 nM. To be noted: tested as the 18F-labelled form.
Series [19] is described as follows: Inhibition of GABA A receptor at 10 nM. The conditions noted are these: tested as the 18F-labelled form.
Series [20] addresses 5-hydroxytryptamine receptor 5A (Homo sapiens) (UniProt P47898). The series can be described thus: Inhibition of 5HT5A receptor at 10 nM. The conditions noted are these: tested as the 18F-labelled form.
Series [21] is described as follows: Inhibition of opioid receptor at 10 nM. The conditions noted are these: tested as the 18F-labelled form.

Chain of Sigma non-opioid intracellular receptor 1 (Homo sapiens) (Q99720 whole entry): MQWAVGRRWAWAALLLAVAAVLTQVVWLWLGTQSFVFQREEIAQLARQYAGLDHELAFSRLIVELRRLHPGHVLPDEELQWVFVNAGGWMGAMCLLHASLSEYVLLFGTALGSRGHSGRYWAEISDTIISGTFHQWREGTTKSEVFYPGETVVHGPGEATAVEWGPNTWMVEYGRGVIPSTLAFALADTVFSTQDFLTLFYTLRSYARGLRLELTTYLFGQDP
Chain of 5-hydroxytryptamine receptor 5A (Homo sapiens) (P47898 whole entry): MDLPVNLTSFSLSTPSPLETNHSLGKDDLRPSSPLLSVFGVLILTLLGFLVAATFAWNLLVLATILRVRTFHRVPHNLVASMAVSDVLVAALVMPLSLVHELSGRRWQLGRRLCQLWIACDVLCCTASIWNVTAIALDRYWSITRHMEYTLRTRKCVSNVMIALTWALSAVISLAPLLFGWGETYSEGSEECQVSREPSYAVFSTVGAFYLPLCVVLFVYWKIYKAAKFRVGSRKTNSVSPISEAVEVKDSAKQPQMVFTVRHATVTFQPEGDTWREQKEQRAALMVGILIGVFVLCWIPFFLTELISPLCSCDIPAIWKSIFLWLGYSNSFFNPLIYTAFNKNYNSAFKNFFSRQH
Chain of Sodium-dependent noradrenaline transporter (Homo sapiens) (P23975 whole entry): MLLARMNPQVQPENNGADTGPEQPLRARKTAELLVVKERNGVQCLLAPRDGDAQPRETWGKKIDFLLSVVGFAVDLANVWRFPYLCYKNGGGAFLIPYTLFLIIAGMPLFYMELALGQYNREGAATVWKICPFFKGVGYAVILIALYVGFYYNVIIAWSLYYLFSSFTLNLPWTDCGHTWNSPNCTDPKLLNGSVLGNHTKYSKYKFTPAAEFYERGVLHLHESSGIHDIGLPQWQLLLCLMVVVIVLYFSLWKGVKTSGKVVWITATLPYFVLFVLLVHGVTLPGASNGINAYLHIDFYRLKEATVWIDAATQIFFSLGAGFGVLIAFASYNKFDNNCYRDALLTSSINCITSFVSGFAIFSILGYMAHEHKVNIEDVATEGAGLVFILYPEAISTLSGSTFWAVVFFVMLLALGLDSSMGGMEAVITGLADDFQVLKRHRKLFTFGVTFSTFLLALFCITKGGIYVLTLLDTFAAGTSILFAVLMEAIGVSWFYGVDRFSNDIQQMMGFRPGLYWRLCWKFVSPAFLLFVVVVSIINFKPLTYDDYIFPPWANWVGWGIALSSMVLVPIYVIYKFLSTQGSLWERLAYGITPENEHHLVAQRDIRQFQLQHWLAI
Chain of hERG (KCNH2) (Q12809 whole entry): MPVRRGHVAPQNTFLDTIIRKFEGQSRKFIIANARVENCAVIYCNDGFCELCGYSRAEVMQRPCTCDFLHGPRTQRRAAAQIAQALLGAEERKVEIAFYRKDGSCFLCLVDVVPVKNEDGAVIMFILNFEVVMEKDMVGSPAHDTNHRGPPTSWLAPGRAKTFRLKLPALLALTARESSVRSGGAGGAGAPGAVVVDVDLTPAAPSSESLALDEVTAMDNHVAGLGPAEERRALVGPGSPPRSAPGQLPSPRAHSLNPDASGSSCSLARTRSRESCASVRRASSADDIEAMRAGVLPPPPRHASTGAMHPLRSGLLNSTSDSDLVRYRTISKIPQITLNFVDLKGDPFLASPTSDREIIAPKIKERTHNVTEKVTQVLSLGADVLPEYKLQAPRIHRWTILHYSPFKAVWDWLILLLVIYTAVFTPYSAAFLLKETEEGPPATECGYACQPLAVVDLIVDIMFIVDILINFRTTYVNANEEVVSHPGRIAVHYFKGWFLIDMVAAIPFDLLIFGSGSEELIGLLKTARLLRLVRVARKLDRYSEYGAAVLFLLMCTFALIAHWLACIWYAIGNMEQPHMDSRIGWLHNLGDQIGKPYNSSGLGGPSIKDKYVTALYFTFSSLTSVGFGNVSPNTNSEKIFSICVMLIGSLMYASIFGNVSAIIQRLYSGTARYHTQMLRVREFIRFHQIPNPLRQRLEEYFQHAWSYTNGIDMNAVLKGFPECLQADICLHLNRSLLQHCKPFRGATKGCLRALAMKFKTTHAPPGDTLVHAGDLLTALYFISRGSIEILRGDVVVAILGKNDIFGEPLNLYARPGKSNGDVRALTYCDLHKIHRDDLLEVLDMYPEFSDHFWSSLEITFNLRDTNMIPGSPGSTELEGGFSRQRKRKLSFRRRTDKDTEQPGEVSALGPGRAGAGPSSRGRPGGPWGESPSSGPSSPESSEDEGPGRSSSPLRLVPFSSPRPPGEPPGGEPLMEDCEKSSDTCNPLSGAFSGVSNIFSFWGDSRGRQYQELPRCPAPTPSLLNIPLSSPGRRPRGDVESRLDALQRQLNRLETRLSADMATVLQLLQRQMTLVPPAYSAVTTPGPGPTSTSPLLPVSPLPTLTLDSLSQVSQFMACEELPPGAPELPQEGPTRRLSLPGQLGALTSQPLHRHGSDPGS
Chain of Voltage-gated inwardly rectifying potassium channel KCNH2 (Q12809 whole entry): as above

In series [1], `CSc1cccc(N(C)C(=N)Nc2cc(SC[18F])ccc2Cl)c1` yielded a Kd of 1.38 nM.

For `[18F]CC12NC(Cc3ccccc31)c1ccccc12` (centres undefined), the Kd in [2] is 79 nM.

For `CN(C(=N)Nc1cccc2ccccc12)c1cccc([123I])c1`, binding in [2] was characterised by a dissociation constant (Kd) of 4.2 nM. Further, in [3], the logD was determined as 2.19.

As for `[11CH3]NC1(c2ccccc2)CCCCC1=O` (centres undefined) [[11C]KETAMINE], in [2], the dissociation constant (Kd) was 1200 nM.

The molecule `CSc1ccc(Cl)c(NC(=N)N(C)c2cccc(O[11CH3])c2)c1` returned a Kd in series [2] of 5.2 nM.

Take `CSc1ccc(Cl)c(NC(=N)N(C)c2cccc(S[11CH3])c2)c1`: the Kd in [1] stood at 1.78 nM; in series [2], 1.9 nM. In [4], this molecule returned a log distribution coefficient (logD) of 2.68.

As to `CSc1cccc(N(C)C(=N)Nc2cc(SCC[18F])ccc2Cl)c1`, in [5], the Activity entry is recorded as “Not Active”. Moreover, the dissociation constant Kd in [1] was 2.35 nM. In addition, the log distribution coefficient (logD) in [6] turned out to be 2.49. In [7], this molecule gave an inhibition at 1 µM of 56%.

On to `C[C@]12C[C@@H]3C[C@](N)(C1)C[C@@](C[18F])(C3)C2`, for which the IC50 in series [2] turned out to be 6000 nM.

Molecule `CSc1cccc(N(C)C(=N)Nc2cc(SCCF)ccc2Cl)c1` displayed an inhibition in series [8] of 47%. Besides, the outcome in series [9], in [10], in series [11], in series [12], in series [13] and in series [14] was Active. Besides, the result in [15], in [16], in series [17], in series [18], in series [19] and in [20] was inactive. The outcome in series [21] was inactive.

In series [2], `[18F]CCc1ccc(C2(N3CCCCC3)CCCCC2)s1` had a Kd of 38 nM.

What is called Kd is the concentration at which binding is half-saturated. The term logD denotes the decadic logarithm of the distribution of all forms, ionised or not, between an organic phase and buffer at a given pH. Higher therefore signals a more lipophilic compound. One may read the inhibition as the change of the read-out against control, counted positive when it falls. The low end stands for a weak effect, the high end for a strong effect. By IC50 is commonly meant the concentration needed to halve the response being measured.
